Holding throughout (assay type): cell-based, human
One test relates to THP-1 cells. Nature of the test: TPA-induced differentiation of THP-1 cells to macrophage-like cells (ITGAM immunoblot, CD68 immunofluorescence). The conditions noted are these: 100 nM TPA. As for the experimental part:
Phorbol ester (12-O-Tetradecanoylphorbol 13-acetate: TPA) is an activator of protein kinase C (PKC) that has been frequently used for inducing the differentiation of different cell types, including myeloid cells. Activation of human monocytic cells affects ALOX expression. Therefore, we induced differentiation of monocytic THP-1 cells to macrophage-like cells (MLCs) with 100 nM TPA [91, 92] and monitored the ALOX12 protein level as well as nucleo-cytoplasmic translocation of ALOX12-AS1-201. […] We concurrently monitored expression of the integrin subunit a M (ITGAM), also known as CD11b, which regulates myeloid cell polarization and is expressed in macrophages to facilitate adhesion, migration, chemotaxis, and accumulation during inflammation. […] CD68 is a transmembrane glycoprotein that is mainly located in the endosomal/lysosomal compartment but can rapidly shuttle to the cell surface in myeloid cells. […] Based on these observations, we performed nuclear and cytoplasmic fractionation at 72 hours of TPA treatment.
Relative quantification of proteins was performed as described previously. […] The immunoblots were imaged using a ChemiDoc XRS+ system (Bio-Rad) and band intensities were quantified using ImageJ (version 1.48) Software. […]

The next test has as its system ALOX12-AS1-201 lncRNA. Nature of the test: Nucleo-cytoplasmic translocation of ALOX12-AS1-201 in HEK293 cells (FISH, fractionation, quantitative RT-PCR). To be noted: 10 μM TPA, 1 hour. As to the method:
Phorbol ester (12-O-Tetradecanoylphorbol 13-acetate: TPA) is an activator of protein kinase C (PKC) that has been frequently used for inducing differentiation in different cell types including myeloid cells. […] Therefore, we treated HEK293 cells with 10 μM TPA for 1 hour and observed ALOX12-AS1-201 nucleo-cytoplasmic translocation as well as measured ALOX12 protein level.
(§1) Total RNA from different cell lines was extracted with Trizol reagent (Catalog number: 15596026; ThermoFisher Scientific, Canada) as per the manufacturer's recommended protocol. […] Absolute quantification of ALOX12-AS1 lncRNA isoforms was performed in a Mastercycler®ep realplex real-time PCR system (Eppendorf, Hamburg, Germany) using SYBR green dye (Catalog number: S7563; ThermoFisher Scientific). […] Real-time PCR data quality control calculations were determined by the SAS program as described previously and the calculated PCR efficiency was between 95%-99%. Quantitative RT-PCR was conducted for different cell-line derived RNAs, and the specificity of each amplified product was confirmed by melting curve analysis. Results were expressed as copy number of specific isoforms per 100 ng of total RNA.
For RNA-FISH, cells were grown on coverslips and human tissue cryosections were adhered to glass slides. […] The cells were then fixed and analyzed by RNA-FISH. […]

In test [1] the test system is ALOX12 protein level in HEK293 cells. Nature of the test: ALOX12 protein level in HEK293 cells (immunoblot). To be noted: HEK293 cells, 10 μM TPA, 1 hour, vs vehicle.
Procedure: As an alternative approach, multiple isoform-specific oligonucleotides (ASOs) complementary to different regions of ALOX12-AS1-201/202 were designed (FIG. 7A-C).
Relative quantification of proteins was performed as described previously [35, 106]. The cell lysates were prepared in 1×RIPA lysis and extraction buffer (catalogue number: 89900, ThermoFisher Scientific) supplemented with 1× Halt protease and phosphatase inhibitor cocktail (catalogue number: 78441, ThermoFisher Scientific). The protein lysates were denatured in Laemmli buffer containing 2% SDS, 10% glycerol, 0.002% bromophenol blue, 0.75 M Tris-HCl pH 6.8, and 100 mM DTT. The immunoblots were imaged using a ChemiDoc XRS+ system (Bio-Rad) and band intensities were quantified using ImageJ (version 1.48) Software [107]. Due to the possibility of inconsistency in the relative expression of housekeeping genes, we normalized all proteins of interest based on the intensity of the Oriole-stained protein profile [92].
Another test relates to ALOX12 AS1-201. Nature of the test: Multiplex RT-PCR of ALOX12-AS1-201 in TPA-treated THP-1 derived MLCs. To be noted: TPA treated (72 hours) MLCs vs vehicle treated THP-1 cells. As for the experimental part:
Phorbol ester (12-O-Tetradecanoylphorbol 13-acetate: TPA) is an activator of protein kinase C (PKC) that has been frequently used for inducing the differentiation of different cell types, including myeloid cells. Activation of human monocytic cells affects ALOX expression. Therefore, we induced differentiation of monocytic THP-1 cells to macrophage-like cells (MLCs) with 100 nM TPA [91, 92] and monitored the ALOX12 protein level as well as nucleo-cytoplasmic translocation of ALOX12-AS1-201. […] We concurrently monitored expression of the integrin subunit a M (ITGAM), also known as CD11b, which regulates myeloid cell polarization and is expressed in macrophages to facilitate adhesion, migration, chemotaxis, and accumulation during inflammation. […]
as §1, with “Quantitative RT-PCR was conducted for different cell-line derived RNAs, and the specificity of each amplified product was confirmed by melting curve analysis.” left out

SMILES strings stand for the structures.

For the compound `CCCCCCCCCCCCCC(=O)O[C@@H]1[C@@H](C)[C@@]2(O)[C@@H](C=C(CO)C[C@]3(O)C(=O)C(C)=C[C@@H]23)[C@@H]2C(C)(C)[C@]12OC(C)=O` [TPA, 12-O-Tetradecanoylphorbol 13-acetate], the ITGAM expression entry with THP-1 cells (immunoblot) is recorded as “expressed at 72 hours”. Moreover, the “CD68 expression and localization” value in the test with THP-1 cells (immunofluorescence) was “gradually increasing expression and translocation of CD68 to endosomal structures”. Besides, the ALOX12-AS1-201 nucleo-cytoplasmic translocation entry in the test with ALOX12-AS1-201 lncRNA (FISH, vs vehicle (DMSO)) is reported as “dramatic nucleo-cytoplasmic translocation”. Further, the “cytosolic ALOX12-AS1-201 lncRNA abundance” value in the test with ALOX12-AS1-201 lncRNA (subcellular fractionation and quantitative RT-PCR) is “significant increase”. The ALOX12 protein level result in test [1] is listed as “significant reduction”. In the test on ALOX12 AS1-201, the “ALOX12 AS1-201 level” value was “relatively unaltered”.

Values taken from US20230407296A1, “Method to Regulate ALOX12-AS1 IncRNA-Mediated Alteration of ALOX12 Protein and to Screen for Novel Drugs to Alter ALOX12 Protein Level” (priority 2021, published 2023).
